The subject of assay [1] is HCV genotype 1a (H77 strain) replicon in HUH-7 cells. Briefly: HCV replicon luciferase reporter assay, genotype 1a. Format: cell-based. The note with it: Hepatitis C virus, Huh-7, 72 h, HCV genotype 1a replicon luciferase assay, 3 days incubation, range class, read-out: LE_1a (EC50, range). The essentials: (§1)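 Replicon inhibition for both genotypes was measured as Renilla luciferase signal (EnduRen, 7.5 μM final, 2 h) after 3-day, 37° C exposure of replicon-bearing HUH-7 cells in 4% FCS DMEM, 0.5% DMSO. The 1b construct carries S1179I; the 1a H77 construct carries P1496L and S2204I. Twenty-point, 3-fold dilutions were fitted four-parametrically for EC50, and CC50 was taken from multiplexed Cell Titer-Blue.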
A general note: A replicon is a self-replicating genome or part of one, used to study replication in cells.

Assay [2] concerns HCV genotype 1b (Con1) replicon in HUH-7 cells. Briefly: HCV replicon luciferase reporter assay, genotype 1b. Format: cell-based. Particulars: Hepatitis C virus, Huh-7, 72 h, HCV genotype 1b replicon luciferase assay, 3 days incubation, range class, read-out: LE_1b (EC50, range). The essentials: as §1

Where only a bound is given, the exact number is not on record here.

`COc1ccc2c(O[C@@H]3C[C@H]4C(=O)N[C@]5(C(=O)NS(=O)(=O)C6CC6)C[C@H]5/C=C\CC[C@H](C)C[C@@H](C)[C@H](NC(=O)O[C@@H]5C[C@@H]6C[C@@H]6C5)C(=O)N4C3)nc(-c3ccc(F)cc3)cc2c1` [Compound 3045, (1R,3r,5S)-bicyclo[3.1.0]hexan-3-yl((2R,6S,7R,9S,13aS,14aR,16aS,Z)-14a-((cyclopropylsulfonyl)carbamoyl)-2-((3-(4-fluorophenyl)-6-methoxyisoquinolin-1-yl)oxy)-7,9-dimethyl-5,16-dioxo-1,2,3,5,6,7,8,9,10,11,13a,14,14a,15,16,16a-hexadecahydrocyclopropa[e]pyrrolo[1,2-a][1,4]diazacyclopentadecin-6-yl)carbamate]: the EC50 in assay [1] and in assay [2] was less than 5.46 nM each time.
For the molecule `COc1ccc2c(O[C@@H]3C[C@H]4C(=O)N[C@]5(C(=O)NS(=O)(=O)C6CC6)C[C@H]5/C=C\CC[C@@H](C)C[C@@H](C)[C@H](NC(=O)O[C@@H]5C[C@@H]6C[C@@H]6C5)C(=O)N4C3)nc(-c3ccc(F)cc3)cc2c1` [Compound 3046, (1R,3r,5S)-bicyclo[3.1.0]hexan-3-yl((2R,6S,7R,9R,13aS,14aR,16aS,Z)-14a-((cyclopropylsulfonyl)carbamoyl)-2-((3-(4-fluorophenyl)-6-methoxyisoquinolin-1-yl)oxy)-7,9-dimethyl-5,16-dioxo-1,2,3,5,6,7,8,9,10,11,13a,14,14a,15,16,16a-hexadecahydrocyclopropa[e]pyrrolo[1,2-a][1,4]diazacyclopentadecin-6-yl)carbamate], the EC50 in assay [1] and in assay [2] was less than 5.46 nM throughout.
On to `COc1ccc2c(O[C@@H]3C[C@H]4C(=O)N[C@]5(C(=O)NS(=O)(=O)C6CC6)C[C@H]5/C=C\CC[C@H](C)C[C@@H](C)[C@H](NC(=O)OC(C)(C)C)C(=O)N4C3)nc(-c3ccc(OC)c(Cl)c3)cc2c1` [Compound 3047, tert-butyl ((2R,6S,7R,9S,13aS,14aR,16aS,Z)-2-((3-(3-chloro-4-methoxyphenyl)-6-methoxyisoquinolin-1-yl)oxy)-14a-((cyclopropylsulfonyl)carbamoyl)-7,9-dimethyl-5,16-dioxo-1,2,3,5,6,7,8,9,10,11,13a,14,14a,15,16,16a-hexadecahydrocyclopropa[e]pyrrolo[1,2-a][1,4]diazacyclopentadecin-6-yl)carbamate], for which the EC50 (as a rule, the midpoint of the concentration-response curve) was 4.82 to 103 nM in assay [1] and less than 5.46 nM in assay [2].
Taken in the same sequence, the figures for `COc1ccc2c(O[C@@H]3C[C@H]4C(=O)N[C@]5(C(=O)NS(=O)(=O)C6CC6)C[C@H]5/C=C\CC[C@@H](C)C[C@@H](C)[C@H](NC(=O)OC(C)(C)C)C(=O)N4C3)nc(-c3ccc(OC)c(Cl)c3)cc2c1` [Compound 3048, tert-butyl ((2R,6S,7R,9R,13aS,14aR,16aS,Z)-2-((3-(3-chloro-4-methoxyphenyl)-6-methoxyisoquinolin-1-yl)oxy)-14a-((cyclopropylsulfonyl)carbamoyl)-7,9-dimethyl-5,16-dioxo-1,2,3,5,6,7,8,9,10,11,13a,14,14a,15,16,16a-hexadecahydrocyclopropa[e]pyrrolo[1,2-a][1,4]diazacyclopentadecin-6-yl)carbamate] were less than 5.46 nM and less than 5.46 nM.
Taken in the same sequence, the figures for `COc1ccc2c(O[C@@H]3C[C@H]4C(=O)N[C@]5(C(=O)NS(=O)(=O)C6CC6)C[C@H]5/C=C\CC[C@H](C)C[C@@H](C)[C@H](NC(=O)OC(C)(C)C)C(=O)N4C3)nc(-c3ccc(OC)c(F)c3)cc2c1` [Compound 3049, tert-butyl ((2R,6S,7R,9S,13aS,14aR,16aS,Z)-14a-((cyclopropylsulfonyl)carbamoyl)-2-((3-(3-fluoro-4-methoxyphenyl)-6-methoxyisoquinolin-1-yl)oxy)-7,9-dimethyl-5,16-dioxo-1,2,3,5,6,7,8,9,10,11,13a,14,14a,15,16,16a-hexadecahydrocyclopropa[e]pyrrolo[1,2-a][1,4]diazacyclopentadecin-6-yl)carbamate] were less than 5.46 nM and less than 5.46 nM.
As for `COc1ccc2c(O[C@@H]3C[C@H]4C(=O)N[C@]5(C(=O)NS(=O)(=O)C6CC6)C[C@H]5/C=C\CC[C@@H](C)C[C@@H](C)[C@H](NC(=O)OC(C)(C)C)C(=O)N4C3)nc(-c3ccc(OC)c(F)c3)cc2c1` [Compound 3050, tert-butyl ((2R,6S,7R,9R,13aS,14aR,16aS,Z)-14a-((cyclopropylsulfonyl)carbamoyl)-2-((3-(3-fluoro-4-methoxyphenyl)-6-methoxyisoquinolin-1-yl)oxy)-7,9-dimethyl-5,16-dioxo-1,2,3,5,6,7,8,9,10,11,13a,14,14a,15,16,16a-hexadecahydrocyclopropa[e]pyrrolo[1,2-a][1,4]diazacyclopentadecin-6-yl)carbamate], the half-maximal effective concentration (EC50) in assay [1] and in assay [2] was less than 5.46 nM in each case.
Consider `COc1ccc2c(O[C@@H]3C[C@H]4C(=O)N[C@]5(C(=O)NS(=O)(=O)C6CC6)C[C@H]5/C=C\CC[C@H](C)C[C@@H](C)[C@H](NC(=O)OC(C)(C)C(F)(F)F)C(=O)N4C3)nc(-c3ccc(OC)c(Cl)c3)cc2c1` [Compound 3051, 1,1,1-trifluoro-2-methylpropan-2-yl((2R,6S,7R,9S,13aS,14aR,16aS,Z)-2-((3-(3-chloro-4-methoxyphenyl)-6-methoxyisoquinolin-1-yl)oxy)-14a-((cyclopropylsulfonyl)carbamoyl)-7,9-dimethyl-5,16-dioxo-1,2,3,5,6,7,8,9,10,11,13a,14,14a,15,16,16a-hexadecahydrocyclopropa[e]pyrrolo[1,2-a][1,4]diazacyclopentadecin-6-yl)carbamate], for which the EC50 in assay [1] was 4.82 to 103 nM; in assay [2], less than 5.46 nM.
The like results for `COc1ccc2c(O[C@@H]3C[C@H]4C(=O)N[C@]5(C(=O)NS(=O)(=O)C6CC6)C[C@H]5/C=C\CC[C@@H](C)C[C@@H](C)[C@H](NC(=O)OC(C)(C)C(F)(F)F)C(=O)N4C3)nc(-c3ccc(OC)c(Cl)c3)cc2c1` [Compound 3052, 1,1,1-trifluoro-2-methylpropan-2-yl((2R,6S,7R,9R,13aS,14aR,16aS,Z)-2-((3-(3-chloro-4-methoxyphenyl)-6-methoxyisoquinolin-1-yl)oxy)-14a-((cyclopropylsulfonyl)carbamoyl)-7,9-dimethyl-5,16-dioxo-1,2,3,5,6,7,8,9,10,11,13a,14,14a,15,16,16a-hexadecahydrocyclopropa[e]pyrrolo[1,2-a][1,4]diazacyclopentadecin-6-yl)carbamate] were, in that order, less than 5.46 nM and less than 5.46 nM.
The like results for `COc1ccc2c(O[C@@H]3C[C@H]4C(=O)N[C@]5(C(=O)NS(=O)(=O)C6CC6)C[C@H]5/C=C\CC[C@H](C)C[C@@H](C)[C@H](NC(=O)O[C@@H]5C[C@@H]6C[C@@H]6C5)C(=O)N4C3)nc(-c3ccc(OC)c(Cl)c3)cc2c1` [Compound 3053, (1R,3r,5S)-bicyclo[3.1.0]hexan-3-yl((2R,6S,7R,9S,13aS,14aR,16aS,Z)-2-((3-(3-chloro-4-methoxyphenyl)-6-methoxyisoquinolin-1-yl)oxy)-14a-((cyclopropylsulfonyl)carbamoyl)-7,9-dimethyl-5,16-dioxo-1,2,3,5,6,7,8,9,10,11,13a,14,14a,15,16,16a-hexadecahydrocyclopropa[e]pyrrolo[1,2-a][1,4]diazacyclopentadecin-6-yl)carbamate] were, in that order, less than 5.46 nM and less than 5.46 nM.
Taken in the same sequence, the figures for `COc1ccc2c(O[C@@H]3C[C@H]4C(=O)N[C@]5(C(=O)NS(=O)(=O)C6CC6)C[C@H]5/C=C\CC[C@@H](C)C[C@@H](C)[C@H](NC(=O)O[C@@H]5C[C@@H]6C[C@@H]6C5)C(=O)N4C3)nc(-c3ccc(OC)c(Cl)c3)cc2c1` [Compound 3054, (1R,3r,5S)-bicyclo[3.1.0]hexan-3-yl((2R,6S,7R,9R,13aS,14aR,16aS,Z)-2-((3-(3-chloro-4-methoxyphenyl)-6-methoxyisoquinolin-1-yl)oxy)-14a-((cyclopropylsulfonyl)carbamoyl)-7,9-dimethyl-5,16-dioxo-1,2,3,5,6,7,8,9,10,11,13a,14,14a,15,16,16a-hexadecahydrocyclopropa[e]pyrrolo[1,2-a][1,4]diazacyclopentadecin-6-yl)carbamate] were less than 5.46 nM and less than 5.46 nM.
Regarding `COc1ccc2c(O[C@@H]3C[C@H]4C(=O)N[C@]5(C(=O)NS(=O)(=O)C6CC6)C[C@H]5/C=C\CC[C@H](C)C[C@@H](C)[C@H](NC(=O)OC(C)(C)C(F)(F)F)C(=O)N4C3)nc(-c3ccc(OC)c(F)c3)cc2c1` [Compound 3055, 1,1,1-trifluoro-2-methylpropan-2-yl((2R,6S,7R,9S,13aS,14aR,16aS,Z)-14a-((cyclopropylsulfonyl)carbamoyl)-2-((3-(3-fluoro-4-methoxyphenyl)-6-methoxyisoquinolin-1-yl)oxy)-7,9-dimethyl-5,16-dioxo-1,2,3,5,6,7,8,9,10,11,13a,14,14a,15,16,16a-hexadecahydrocyclopropa[e]pyrrolo[1,2-a][1,4]diazacyclopentadecin-6-yl)carbamate], the concentration giving a half-maximal response (EC50) is 4.82 to 103 nM in assay [1] and less than 5.46 nM in assay [2].
For `COc1ccc2c(O[C@@H]3C[C@H]4C(=O)N[C@]5(C(=O)NS(=O)(=O)C6CC6)C[C@H]5/C=C\CC[C@@H](C)C[C@@H](C)[C@H](NC(=O)OC(C)(C)C(F)(F)F)C(=O)N4C3)nc(-c3ccc(OC)c(F)c3)cc2c1` [Compound 3056, 1,1,1-trifluoro-2-methylpropan-2-yl((2R,6S,7R,9R,13aS,14aR,16aS,Z)-14a-((cyclopropylsulfonyl)carbamoyl)-2-((3-(3-fluoro-4-methoxyphenyl)-6-methoxyisoquinolin-1-yl)oxy)-7,9-dimethyl-5,16-dioxo-1,2,3,5,6,7,8,9,10,11,13a,14,14a,15,16,16a-hexadecahydrocyclopropa[e]pyrrolo[1,2-a][1,4]diazacyclopentadecin-6-yl)carbamate], the EC50 in assay [1] and in assay [2] was less than 5.46 nM in each case.

The values above are taken from patent publication US9499550B2 (BRISTOL-MYERS SQUIBB COMPANY, priority 2012, dated 2016).
